In brackets after ≈: the same amount, converted by molar mass.
Key:
[1] = Experimental: The stock solution of HPic and H2Dpic was prepared by dissolving in demineralized water (c(ligand) = 0.02 M). The gallium(III) ion solution was prepared from anhydrous gallium(III) nitrate (c(Ga^3+) = 0.05 M) and was standardized by back titration of excess of EDTA with zinc(II). Decarbonated potassium hydroxide solution (approx. 0.2 M) was used as a titrant that was standardized by potassium hydrogen phthalate (c(KHP) = 0.1 M). Standard inert electrolyte of nitric acid was used in all titrations (c(HNO3) = 0.03 M, I(HNO3/KNO3) = 0.1 M). Potentiometric measurements were carried out using a TitroLine 7000 dosage system with a BlueLine combination electrode (SI Analytics) in a glass vessel (5 mL) thermostated at 25 ± 0.1 °C at an ionic strength I(KNO3) = 0.1 M. Inert atmosphere was ensured by a constant flow of a nitrogen gas. Precise calibration of the electrode was carried out by the titration of 0.03 M HNO3 with 0.2 M KOH in the range –log[H^+] = 1.8–12.0, with the pH-meter yielding E values. The relation between E and –log[H^+] is expressed by Eq. (1) where the term E^0 contains the standard potentials of the electrode and the contribution of inert ions to the liquid-junction potential. The value S corresponds to the Nernstian slope, the value of which should be close to the theoretical value, and j1[H^+] and j2[OH^–] = j2Kw/[H^+] are contributions of the H^+ and OH^– ions, respectively, to the liquid-junction potential. The pKw value was 13.78 in Eq. (1).1 E=E^0-S-logH^++j1H^++j2Kw/H^+
The parameters j1 and j2 cause deviation from linear dependence between E and –log[H^+] only in strongly acidic and strongly alkaline solutions. The picolinic and dipicolinic acid protonation constants were determined with ligand concentration 0.004 M. The stability constants in the Ga-HPic and Ga-H2Dpic binary system were determined by the ligand concentrations 0.004 and the Ga^3+ concentration was 0.004, 0.002 and 0.001 M in dependence on the ligand to metal ratio.
The protonation constants β110, β210 are the concentration constants and are defined by β110 = [HL]/ [H][L], β210 = [H2L]/ [H]^2[L] (pK2 = logβ110, pK1 = logβ210- logβ110); the stability constants are defined by βrqp = [HrLqMp]/[H]^r[L]^q[M]^p. The equilibrium constants were obtained by fitting the titration data with OPIUM [23]. The following hydrolysis constants were used for the calculations: βpr = [Mp(OH)r^3−r][H]^r/[M]^p; log β11 = − 2.74; log β12 = − 7.0; log β13 = − 11.96; log β14 = − 15.52 [24].

[2] = tested on: Staphylococcus aureus (S. aureus) CCM 3953; assay: Antimicrobial activity, macrodilution method (growth by A590); format: cell-based; conditions: Staphylococcus aureus, CCM3953; positive control; read-out: MIC100 for S. aureus
Experimental: (§1) The antimicrobial activities of gallium(III) complexes GaPic, GaDpic, GaChel, GaCldpic, free ligands (HPic, H2Dpic, H2Chel, H2Cldpic) and positive controls (cefoxitin (C), ampicillin (A) and piperacillin (P)) were evaluated by macrodilution method using G^+ bacteria (Firmicutes) Staphylococcus aureus (S. aureus) CCM 3953 (Czech Collection of Microorganisms), G^− bacteria (γ-proteobacteria) Escherichia coli (E. coli) CCM 3988, Pseudomonas aeruginosa (P. aeruginosa) CCM 1959 (Czech Collection of Microorganisms) and the yeast Candida parapsilosis (C. parapsilosis) ATCC 22019 (American type culture collection). Cultures of bacteria (in Mueller–Hinton broth, MHB) and yeasts (in Sabouraud’s growth medium, SB) were incubated under shaking (250 rpm) at 37 °C. The growth of bacteria and yeasts was evaluated by measuring the absorbance of the growing cultures (A590) until the cultures reached the stationary growth phase. The effects of gallium(III) complexes on the growth of filamentous fungi Rhizopus oryzae (R. oryzae) CCM F-8284, Alternaria alternata (A. alternata) CCM F-128 and Microsporum gypseum (M. gypseum) CCM F-8342 (Czech Collection of Microorganisms) were observed by macrodilution method on solidified potato-dextrose growth medium (PDA). During culturing, the diameters of growing fungal colonies were measured at regular intervals. Briefly, the antimicrobial activity (bacteria and yeasts) gallium(III) complexes/ ligands were added to the microbial culture at the beginning of the cultivation-to the lag phase. Pure gallium(III) complexes/ligands were dissolved in DMSO. The final concentration of DMSO never exceeded 1.0 vol. % neither in control nor treated samples. Concentration of gallium(III) complexes used in experimental work for evaluation of antimicrobial activity was used in the range of 0.05–2 mM, for the free ligands in the range of 0.5–2.0 mM in all experiments. […] The IC50 values were evaluated from toxicity curves. All the obtained results of antimicrobial activity were compared to the activity of Ga(NO3)3.

[3] = tested on: human dermal fibroblasts (HDF); assay: MTS antiproliferative assay (non-cancer cells); conditions: read-out: Cytotoxic activity IC50 HDF; MTS, 72 h of incubation
Experimental: (§2) Cell culture the cell lines A2058 (human metastatic melanoma), BLM (human metastatic melanoma), HCT116 (human colorectal carcinoma), HeLa (human cervical adenocarcinoma), Jurkat (human leukaemic T cell lymphoma). […] Cells were maintained in standard conditions with an atmosphere containing 5% CO2 at 37 °C.
(§3) The antiproliferative activity of Ga(III) complexes GaPic, GaDpic, GaChel, GaCldpic, free ligands (HPic, H2Dpic, H2Chel, H2Cldpic) and cisplatin (cisPt) were evaluated by colorimetric microculture MTS (3-(4,5-dimethylthiazol-2-yl)-5-(3-carboxymethoxyphenyl)-2-(4-sulfophenyl)-2H tetrazolium) assay (Promega, Madison, WI, USA). Cancer and non-cancer cells were seeded at density 5 × 10^3 cells/well in 96-well polystyrene microplates. Twenty-four hours after cell seeding, different concentrations (1.0—100.0 µM) of the compounds were tested. After 72 h of incubation, 10 µL of MTS was added to each well. After an additional 2 h, cell proliferation was evaluated by measuring of absorbance at wavelength 490 nm using the automated Cytation™ 3 Cell Imaging Multi-Mode Reader (Biotek, Winooski, VT, USA). The absorbance of control wells was taken as 100%, and the results were expressed as a percent of untreated control. IC50 values were calculated from MTS analyses.

[4] = tested on: PaTu 8902 (human pancreatic adenocarcinoma); assay: MTS antiproliferative assay; conditions: read-out: Cytotoxic activity IC50 PaTu 8902; MTS, 72 h of incubation
Experimental: as §2, §3

[5] = tested on: HeLa (human cervical adenocarcinoma); assay: MTS antiproliferative assay; conditions: read-out: Cytotoxic activity IC50 HeLa; MTS, 72 h of incubation
Experimental: as §2, §3

[6] = tested on: Jurkat (human leukaemic T cell lymphoma); assay: MTS antiproliferative assay; conditions: read-out: Cytotoxic activity IC50 Jurkat; MTS, 72 h of incubation
Experimental: as §2, §3

[7] = tested on: MDA-MB-231 (human mammary gland adenocarcinoma); assay: MTS antiproliferative assay; conditions: read-out: Cytotoxic activity IC50 MDA-MB-231; MTS, 72 h of incubation
Experimental: as §2, §3

[8] = tested on: HCT116 (human colorectal carcinoma); assay: MTS antiproliferative assay; conditions: read-out: Cytotoxic activity IC50 HCT116; MTS, 72 h of incubation
Experimental: as §2, §3

[9] = tested on: A2058 (human metastatic melanoma); assay: MTS antiproliferative assay; conditions: read-out: Cytotoxic activity IC50 A2058; MTS, 72 h of incubation
Experimental: as §2, §3

[10] = tested on: Pseudomonas aeruginosa (P. aeruginosa) CCM 1959; assay: Antimicrobial activity, macrodilution method (growth by A590); format: cell-based; conditions: Pseudomonas aeruginosa, CCM1959; positive control; read-out: MIC100 for P. aeruginosa
Experimental: as §1

Compound: O=C([O-])c1ccccn1.O=C([O-])c1ccccn1.[Ga+3] [[Ga(Pic)2]^+]
- stability constant logβ021 [1]: 16.23(6)

Compound: O=C([O-])c1ccccn1.O=C([O-])c1ccccn1.O=C([O-])c1ccccn1.[Ga+3] [[Ga(Pic)3]]
- stability constant logβ031 [1]: 20.86(2)

Compound: CO[C@@]1(NC(=O)Cc2cccs2)C(=O)N2C(C(=O)O)=C(COC(N)=O)CS[C@@H]21 [cefoxitin]
- MIC [2]: 0.74 µM (≈ 0.316 µg/mL)

Compound: N.N.[Cl][Pt][Cl] [cisPt, cisplatin]
- IC50 [3]: 40.1 ± 2.8 µM
- IC50 [4]: 12.9 ± 0.9 µM
- IC50 [5]: 35.4 ± 3.4 µM
- IC50 [6]: 6.3 ± 0.5 µM
- IC50 [7]: 7.1 ± 0.3 µM
- IC50 [8]: 7.4 ± 0.8 µM
- IC50 [9]: 17.6 ± 1.2 µM

Compound: CCN1CCN(C(=O)N[C@@H](C(=O)N[C@@H]2C(=O)N3[C@@H]2SC(C)(C)[C@@H]3C(=O)O)c2ccccc2)C(=O)C1=O [piperacillin]
- MIC [10]: 5.81 µM (≈ 3.01 µg/mL)

Source: paper PMC10415494, “Ga(III) pyridinecarboxylate complexes: potential analogues of the second generation of therapeutic Ga(III) complexes?” (Journal of Biological Inorganic Chemistry, 2023)
